Reference: ChEMBL document CHEMBL1201862, “PubChem BioAssay data set” (2004)
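Method: 48-hour compound exposure of cells in 96-well plates, five concentrations, linear interpolation of endpoints. GI50 = concentration required for 50% inhibition of growth.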 The source made the active and inactive calls. Rule as the data show it: active = GI50 up to about 1.1 µM and inactive = higher.

How the values were obtained:
Experiment in all cases: NCI-60 cell line screen, 48 h
KM12 = test system: KM12
HOP-92 = test system: HOP-92
MOLT-4 = test system: MOLT-4
M14 = test system: M14
A498 = test system: A498
SK-MEL-28 = test system: SK-MEL-28
SK-MEL-5 = test system: SK-MEL-5
OVCAR-8 = test system: OVCAR-8
SF-295 = test system: SF-295
COLO 205 = test system: COLO 205
HL-60 = test system: HL-60
IGROV-1 = test system: IGROV-1
EKVX = test system: EKVX
BT-549 = test system: BT-549
SF-539 = test system: SF-539
SF-268 = test system: SF-268
PC-3 = test system: PC-3
SK-OV-3 = test system: SK-OV-3
Malme-3M = test system: Malme-3M
NCI-H226 = test system: NCI-H226

| SMILES | GI50 (KM12) | GI50 (HOP-92) | GI50 (MOLT-4) | GI50 (M14) | GI50 (A498) | GI50 (SK-MEL-28) | GI50 (SK-MEL-5) | GI50 (OVCAR-8) | GI50 (SF-295) | GI50 (COLO 205) | GI50 (HL-60) | GI50 (IGROV-1) | GI50 (EKVX) | GI50 (BT-549) | GI50 (SF-539) | GI50 (SF-268) | GI50 (PC-3) | GI50 (SK-OV-3) | GI50 (Malme-3M) | GI50 (NCI-H226) |
| --- | --- | --- | --- | --- | --- | --- | --- | --- | --- | --- | --- | --- | --- | --- | --- | --- | --- | --- | --- | --- |
| C[C@H]1/C(=C/C(=O)OCCN(C)C)CC[C@H]2[C@H]1C(=O)C[C@H]1C(C)(C)[C@@H](O)CC[C@]21C | > 100 µM (inactive) | > 100 µM (inactive) | > 100 µM (inactive) | > 100 µM (inactive) | > 100 µM (inactive) | > 100 µM (inactive) | > 100 µM (inactive) | > 100 µM (inactive) | > 100 µM (inactive) | > 100 µM (inactive) | > 100 µM (inactive) | > 100 µM (inactive) | > 100 µM (inactive) | > 100 µM (inactive) | > 100 µM (inactive) | > 100 µM (inactive) | > 100 µM (inactive) | > 100 µM (inactive) | > 100 µM (inactive) | 22.5 µM (inactive) |
| O=C(NC(Cc1c[nH]c2ccccc12)C(=O)Nc1ccc(Br)cc1)OCc1ccccc1 (centres undefined) | 6.31 µM (inactive) | 5.18 µM (inactive) | 4.53 µM (inactive) | 11.8 µM (inactive) | 11.4 µM (inactive) | 14.3 µM (inactive) | 10.7 µM (inactive) | 13.6 µM (inactive) | 9.23 µM (inactive) | 12.1 µM (inactive) | 3.97 µM (inactive) | 9.12 µM (inactive) | 6.59 µM (inactive) | 14.8 µM (inactive) | 15.3 µM (inactive) | 12.7 µM (inactive) | 10.4 µM (inactive) | 14.1 µM (inactive) | 11.4 µM (inactive) | 14.5 µM (inactive) |
| O=C1CCC(=O)N1CNc1ccc2c(c1)S(=O)(=O)c1ccccc1O2 | > 100 µM (inactive) | > 100 µM (inactive) | > 100 µM (inactive) | > 100 µM (inactive) | > 100 µM (inactive) | > 100 µM (inactive) | > 100 µM (inactive) | > 100 µM (inactive) | > 100 µM (inactive) | > 100 µM (inactive) | > 100 µM (inactive) | > 100 µM (inactive) | 46 µM (inactive) | > 100 µM (inactive) | > 100 µM (inactive) | > 100 µM (inactive) | > 100 µM (inactive) |  | > 100 µM (inactive) | > 100 µM (inactive) |
| O=S(=O)(O)c1cc(O)c(/N=N\C2S(=O)(=O)OCCOS2(=O)=O)c2ccccc12 | > 100 µM (inactive) | > 100 µM (inactive) | 30.6 µM (inactive) | > 100 µM (inactive) | > 100 µM (inactive) | > 100 µM (inactive) | > 100 µM (inactive) | > 100 µM (inactive) | 51.4 µM (inactive) | > 100 µM (inactive) | 22.2 µM (inactive) | 37.9 µM (inactive) | > 100 µM (inactive) | > 100 µM (inactive) | 54.3 µM (inactive) | > 100 µM (inactive) | > 100 µM (inactive) | > 100 µM (inactive) | > 100 µM (inactive) | > 100 µM (inactive) |
| COc1ccc(C(=O)c2sc(N(C)C)nc2-c2ccccc2)cc1 | 15.8 µM (inactive) | 91.6 µM (inactive) | 81.3 µM (inactive) | 35.3 µM (inactive) | 26.9 µM (inactive) | 32.1 µM (inactive) | 34 µM (inactive) |  |  | 33.7 µM (inactive) | 17.1 µM (inactive) | 42.6 µM (inactive) |  | 26.1 µM (inactive) | 58.7 µM (inactive) | 40.1 µM (inactive) | 28.9 µM (inactive) | 22.5 µM (inactive) | 37.4 µM (inactive) | 67.5 µM (inactive) |
| O=C(Cn1c(C(=O)/C=C/c2ccc(Cl)c(Cl)c2)nc2ccccc21)c1ccccc1 | 19.6 µM (inactive) | 25.2 µM (inactive) | 27.9 µM (inactive) | 23.2 µM (inactive) | 26.1 µM (inactive) | 35.3 µM (inactive) | 16.9 µM (inactive) |  |  | 17.8 µM (inactive) | 15.6 µM (inactive) | 22.6 µM (inactive) | 14.4 µM (inactive) | 32.1 µM (inactive) | 21.9 µM (inactive) | 45.4 µM (inactive) | 29.3 µM (inactive) | 28.6 µM (inactive) | 35.2 µM (inactive) | 31.7 µM (inactive) |
| COc1cc2c(c(OC)c1OC)-c1ccc(SC)c(=O)cc1[C@@H](NC(=O)C(F)(F)F)CC2 | < 0.01 µM (active) | < 0.01 µM (active) | < 0.01 µM (active) | < 0.01 µM (active) | < 0.01 µM (active) | 0.766 µM (active) | < 0.01 µM (active) | < 0.01 µM (active) | < 0.01 µM (active) | < 0.01 µM (active) | < 0.01 µM (active) | < 0.01 µM (active) | 13.8 µM (inactive) | 0.0118 µM (active) | < 0.01 µM (active) | < 0.01 µM (active) | < 0.01 µM (active) | 0.13 µM (active) | < 0.01 µM (active) | 0.199 µM (active) |
